Test results published in patent US11547761B1, “Antibody adjuvant conjugates” (The Board of Trustees of the Leland Stanford Junior …, priority 2016, dated 2023).

Experiments:
[1] = system: recombinant human CD16a protein; test: ELISA binding to CD16a; settings: titration
Description: Maxysorp ELISA plates were coated overnight with 1.5 ug/ml recombinant human CD16a protein (R&D Systems 4325-FC-050). Plates were blocked with PBS containing 1% BSA, and incubated with a titration of antibodies or antibody immunoconjugates. Bound antibodies were detected with Peroxidase conjugated AffiniPure F(ab′)2 Fragment Goat Anti-Human IgG (Jackson 109-036-003). TMB (Fisher PI34028) was added to the wells and absorbance at 450 nm was measured after stopping the reaction with TMB stop solution (Fisher NC1291012).

[2] = molecular target: T1, recombinant human CD64 protein (Homo sapiens, UniProt P12314); test: ELISA binding to CD64; settings: titration
T1 construct: purchased R&D Systems
Description: Maxysorp ELISA plates were coated overnight with 1.5 ug/ml recombinant human CD64 protein (R&D Systems). Plates were blocked with PBS containing 1% BSA, and incubated with a titration of Rituximab or Rituximab immunoconjugates (Rituximab BB-01). Bound antibodies were detected with Peroxidase conjugated AffiniPure F(ab′)2 Fragment Goat Anti-Human IgG (Jackson) using TMB color development and absorbance at 450 nm was measured after stopping the reaction.

[3] = system: human antigen presenting cells; test: Stimulation of human antigen presenting cells with free adjuvants, flow cytometry; type: cell-based; settings: peripheral blood APCs, 10-fold serial dilutions, 18 hours, 37° C.
Description: Peripheral blood antigen presenting cells (APCs) were stimulated with 10-fold serial dilutions of R848, Compound 2 or a control TLR agonist at 37° C. After 18 hours, cells were analyzed via flow cytometry. Data are presented as median fluorescence intensity of each indicated marker; n=3.
To determine if adjuvant functionalization impacted the capacity of Compound 2 or Compound 1 to elicit immune activation, human antigen presenting cells were stimulated with 10-fold serial dilutions of R848, Compound 2, Compound 1 or a control TLR agonist, CL307, for 18 hours prior to analysis via flow cytometry.

[4] = molecular target: T2, human TLR8 (Homo sapiens, UniProt Q9NR97); test: HEK293 TLR reporter (secreted embryonic alkaline phosphatase) assay; type: cell-based; settings: 2-fold serial dilutions, 12 hours at 37° C.
T2 construct: expressed in transfected cells; host or cells: HEK293
T2 sequence (Q9NR97 27-1041): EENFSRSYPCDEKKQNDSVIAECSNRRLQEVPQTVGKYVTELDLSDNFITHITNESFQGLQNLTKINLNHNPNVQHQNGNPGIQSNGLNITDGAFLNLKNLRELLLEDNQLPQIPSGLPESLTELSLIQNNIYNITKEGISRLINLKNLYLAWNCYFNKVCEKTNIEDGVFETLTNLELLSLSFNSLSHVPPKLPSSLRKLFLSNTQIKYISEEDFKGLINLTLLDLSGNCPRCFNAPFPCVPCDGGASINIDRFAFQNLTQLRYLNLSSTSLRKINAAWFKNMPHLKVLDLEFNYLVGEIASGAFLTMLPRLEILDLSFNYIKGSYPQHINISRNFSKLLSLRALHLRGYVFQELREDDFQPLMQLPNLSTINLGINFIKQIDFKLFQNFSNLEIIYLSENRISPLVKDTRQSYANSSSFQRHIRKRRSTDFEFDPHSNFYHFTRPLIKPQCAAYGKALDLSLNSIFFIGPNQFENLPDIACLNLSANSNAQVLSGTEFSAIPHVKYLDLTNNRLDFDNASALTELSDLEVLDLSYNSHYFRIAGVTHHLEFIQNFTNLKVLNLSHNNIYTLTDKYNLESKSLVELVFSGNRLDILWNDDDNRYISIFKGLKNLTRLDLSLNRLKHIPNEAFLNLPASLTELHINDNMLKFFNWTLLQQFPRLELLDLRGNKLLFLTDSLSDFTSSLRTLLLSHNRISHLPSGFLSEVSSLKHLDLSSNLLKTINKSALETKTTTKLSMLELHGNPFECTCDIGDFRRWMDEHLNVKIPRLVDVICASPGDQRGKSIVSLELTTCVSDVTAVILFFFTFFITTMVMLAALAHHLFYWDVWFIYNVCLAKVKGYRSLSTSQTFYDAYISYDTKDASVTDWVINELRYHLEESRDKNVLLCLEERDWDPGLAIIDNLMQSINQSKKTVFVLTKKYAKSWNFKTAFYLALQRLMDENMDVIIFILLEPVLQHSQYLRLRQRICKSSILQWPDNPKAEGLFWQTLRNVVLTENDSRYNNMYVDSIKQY
Description: (§1) HEK293 cells were co-transfected with human TLR7 or TLR8 (top two panels) or murine TLR7 (bottom panel) and an inducible secreted embryonic alkaline phosphatase reporter gene under the control of the IFN-β minimal promoter fused to NF-κB and AP-1 binding sites. Cells were subsequently incubated with 2-fold serial dilutions of the indicated adjuvant for 12 hours at 37° C. Activity was measured by spectrophotometry (OD 650 nm) following addition of alkaline phosphatase substrate.
(§2) Next, the capacity of each functionalized TLR agonist to activate human TLR7 or TLR8 was directly assayed. HEK293 cells were co-transfected with human TLR7 or TLR8 or murine TLR7 and an inducible secreted embryonic alkaline phosphatase reporter gene under the control of the IFN-β minimal promoter fused to NF-κB and AP-1 binding sites. Cells were subsequently incubated with 2-fold serial dilutions of each the indicated adjuvants for 12 hours at 37 C in the presence of an alkaline phosphatase substrate. Activity was measured by spectrophotometry (OD 650 nm).

[5] = molecular target: T3, human TLR7 (Homo sapiens, UniProt Q9NYK1); test: as above; type: cell-based; settings: 2-fold serial dilutions, 12 hours at 37° C.
T3 construct: expressed in transfected cells; host or cells: HEK293
T3 sequence (Q9NYK1 27-1049): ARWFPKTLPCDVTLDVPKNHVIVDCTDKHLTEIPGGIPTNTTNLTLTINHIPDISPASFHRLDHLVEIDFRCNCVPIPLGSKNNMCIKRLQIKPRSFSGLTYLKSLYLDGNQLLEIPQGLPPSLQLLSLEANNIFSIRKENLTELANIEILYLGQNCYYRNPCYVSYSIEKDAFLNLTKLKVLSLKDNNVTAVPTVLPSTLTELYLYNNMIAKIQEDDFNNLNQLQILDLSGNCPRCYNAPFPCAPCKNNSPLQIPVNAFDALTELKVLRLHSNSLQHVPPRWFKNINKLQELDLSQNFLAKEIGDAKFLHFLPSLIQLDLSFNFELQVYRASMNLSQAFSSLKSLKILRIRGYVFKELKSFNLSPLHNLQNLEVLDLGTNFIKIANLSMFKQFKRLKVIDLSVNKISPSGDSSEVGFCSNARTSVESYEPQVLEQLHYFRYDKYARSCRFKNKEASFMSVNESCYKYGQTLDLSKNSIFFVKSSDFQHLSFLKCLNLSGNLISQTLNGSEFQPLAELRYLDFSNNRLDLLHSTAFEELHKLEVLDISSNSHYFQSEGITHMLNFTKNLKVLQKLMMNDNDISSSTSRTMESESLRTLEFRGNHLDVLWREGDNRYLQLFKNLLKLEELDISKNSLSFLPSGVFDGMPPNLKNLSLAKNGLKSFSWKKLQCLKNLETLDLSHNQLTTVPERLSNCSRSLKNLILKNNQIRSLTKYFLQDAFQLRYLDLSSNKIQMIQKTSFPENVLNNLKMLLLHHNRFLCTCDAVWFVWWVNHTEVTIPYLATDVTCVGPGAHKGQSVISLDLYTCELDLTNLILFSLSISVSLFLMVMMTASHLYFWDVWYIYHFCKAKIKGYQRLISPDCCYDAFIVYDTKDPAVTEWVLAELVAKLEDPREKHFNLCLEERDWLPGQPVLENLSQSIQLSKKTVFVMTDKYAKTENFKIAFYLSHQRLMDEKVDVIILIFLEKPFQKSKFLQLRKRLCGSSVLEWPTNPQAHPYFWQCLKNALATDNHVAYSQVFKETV
Description: as §1, §2

[6] = molecular target: T4, murine TLR7 (Mus musculus, UniProt P58681); test: as above; type: cell-based; settings: 2-fold serial dilutions, 12 hours at 37° C.
T4 construct: expressed in transfected cells; host or cells: HEK293
T4 sequence (P58681 27-1050): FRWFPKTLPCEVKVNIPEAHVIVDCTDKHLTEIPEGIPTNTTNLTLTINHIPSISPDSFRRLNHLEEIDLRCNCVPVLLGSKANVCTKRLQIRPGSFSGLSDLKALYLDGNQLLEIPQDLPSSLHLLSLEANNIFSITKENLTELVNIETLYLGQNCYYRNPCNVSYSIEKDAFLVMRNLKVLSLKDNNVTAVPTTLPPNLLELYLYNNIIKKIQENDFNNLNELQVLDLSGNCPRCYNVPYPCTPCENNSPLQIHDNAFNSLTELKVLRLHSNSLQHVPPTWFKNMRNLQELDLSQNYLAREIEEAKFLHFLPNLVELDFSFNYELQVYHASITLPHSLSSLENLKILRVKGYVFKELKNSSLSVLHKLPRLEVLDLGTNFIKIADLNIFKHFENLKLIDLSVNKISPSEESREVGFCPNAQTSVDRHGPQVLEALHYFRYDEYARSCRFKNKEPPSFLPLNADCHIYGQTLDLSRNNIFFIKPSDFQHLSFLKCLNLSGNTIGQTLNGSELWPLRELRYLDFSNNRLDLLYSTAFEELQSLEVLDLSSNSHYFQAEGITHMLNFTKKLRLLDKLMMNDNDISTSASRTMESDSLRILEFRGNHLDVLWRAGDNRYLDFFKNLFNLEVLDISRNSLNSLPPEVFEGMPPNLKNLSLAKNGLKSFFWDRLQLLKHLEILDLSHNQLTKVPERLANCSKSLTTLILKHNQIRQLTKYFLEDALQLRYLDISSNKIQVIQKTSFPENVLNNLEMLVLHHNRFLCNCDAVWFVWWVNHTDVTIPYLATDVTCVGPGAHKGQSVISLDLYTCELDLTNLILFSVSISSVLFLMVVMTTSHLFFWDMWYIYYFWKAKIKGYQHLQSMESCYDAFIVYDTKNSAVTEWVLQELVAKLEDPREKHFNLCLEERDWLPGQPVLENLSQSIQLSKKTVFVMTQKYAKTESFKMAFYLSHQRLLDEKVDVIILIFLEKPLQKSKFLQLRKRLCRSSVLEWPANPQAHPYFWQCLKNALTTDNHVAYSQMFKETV
Description: as §1, §2

[7] = system: murine monocyte derived APCs; test: Cytokine secretion in murine monocyte derived APCs (GM-CSF-pretreated monocytes); type: cell-based; settings: 18 hours
Description: Specifically, cytokine production is shown in FIG. 21 for GM-CSF-pretreated monocytes that were stimulated for 18 hours with the immunoconjugates or equivalent amounts of the unconjugated components.

T1 sequence (P12314 16-374): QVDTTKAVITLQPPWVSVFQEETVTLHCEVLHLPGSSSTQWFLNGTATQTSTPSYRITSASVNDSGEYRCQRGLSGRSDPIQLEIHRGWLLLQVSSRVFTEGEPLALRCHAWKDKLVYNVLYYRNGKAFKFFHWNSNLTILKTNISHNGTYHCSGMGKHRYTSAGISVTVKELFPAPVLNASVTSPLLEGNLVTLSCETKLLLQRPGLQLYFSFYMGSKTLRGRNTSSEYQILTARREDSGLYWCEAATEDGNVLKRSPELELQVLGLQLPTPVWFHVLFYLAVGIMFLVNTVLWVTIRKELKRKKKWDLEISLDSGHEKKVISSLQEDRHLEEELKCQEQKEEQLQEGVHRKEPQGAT

aglycosyl Rituximab: aglycosyl Rituximab (Invivogen hcd20-mab12)
binding to CD16a (fraction of maximal OD signal) [1]: diminished binding

deglycosylated Rituximab: Rituximab deglycosylated with PNGase F
binding to CD64 [2]: impaired binding to CD64

CCCCc1nc2c(N)nc3ccccc3c2n1CCCCN [Compound 1]
myeloid cell activation (median fluorescence intensity of activation markers) [3]: performed similarly to R848 | human TLR8 activation (OD 650 nm) [4]: activated both human TLR7 and TLR8 | human TLR7 activation (OD 650 nm) [5]: activated both human TLR7 and TLR8 | murine TLR7 activation (OD 650 nm) [6]: activated murine TLR7 | cytokine response (TNFα, IL-6, IL-12p70) [7]: failed to produce any cytokine response
